Patent US20130274233A1, “MODULATORS OF HEDGEHOG SIGNALING PATHWAY” (priority 2012, published 2013)

What was measured:
[1] = human cancer patients, after a single high dose; cited from earlier work
[2] = biological target: T1, Smo::EGFP (Homo sapiens, UniProt Q99835); test: High content assay of Shh-induced Smo::EGFP accumulation in the primary cilium (Smo::EGFP/Ivs::tagRFPT NIH/3T3 cells); type: cell-based; conditions: in the presence of Shh
T1 construct: expressed in transfected cells
Description: (§1) NIH/3T3 cells were maintained in DMEM containing 10% (v/v) calf serum, penicillin, streptomycin, and L-glutamine. HEK293, L, cos 7, and suFU−/− mouse embryonic fibroblast cells were maintained in DMEM containing 10% (v/v) fetal bovine serum, penicillin, streptomycin, and L-glutamine. Smo::EGFP, SmoM2::GFP, and Ivs::tagRFPT were cloned into pBabe to generate retroviral particles for infection. Smo::EGFP/Ivs::tagRFPT and SmoM2::GFP/Ivs::tagRFPT stable cell lines were generated through viral infection of NIH/3T3^12. A ShhLightII Gli reporter cell line was obtained from the American Type Culture Collection (ATCC) and used in luciferase reporter assays to measure Hh pathway activity. The cell line contains a stably integrated Gli-responsive Firefly luciferase reporter and a constitutive Renilla luciferase expression construct^33. Subclones expressing Smo or SmoM2 in ShhLightII cells were used for chemical epistasis analyses.
(§2) Cells were cultured and treated in 384-well imaging plate precoated with poly-D-Lysine (Greiner Bio-one), fixed with 4% paraformaldehyde (Electron Microscopy Sciences), and stained with Hoechst (Invitrogen). Images were collected using Opera High Content Screening System (Perkin Elmer). Activityl)ase (IDBS Inc, Emeryvill, Calif.) and Pipeline Pilot (Accelrys, Inc. San Diego, Calif.) were used for high content screening data management and analysis. Acapella 2.0 software (Evotec Technologies/PerkinElmer) was used to perform multi-parametrical high content image quantification. All the images for comparison were scanned with identical microscopic settings and analyzed with the same input parameters.
(§3) Acapella 2.0 software (Evotec Technologies/PerkinElmer) was used to perform multi-parametric high content image quantification. Our image analysis script used Ivs::tagREPT to first determine the location of the PC and then Smo::EGFP to quantify the level of Smo present in the cilium.
The inventors used the spot-finding algorithm in the RFP channel to find Ivs-rich spots. Each non-overlapping spot was based on a maximum 8 pixel-radius (when using a 40× objective) around a central intensity peak of 5 pixels. A distance of at least 10 pixels was required between adjacent spot centers. Spot peaks had to exceed thresholds of relative intensity compared to the remaining body of the spot as well as to the entire image. The average, maximum and total RFP intensity of each spot were measured. The spots with sufficiently high absolute maxima to pass the selected threshold were classified as positive spots. To form candidate cilia, the inventors selected the brightest 15% of the pixels in each positive spot and merged those pixels into objects so that the brightest parts of adjacent spots could form single, larger cilia-shaped objects. To qualify the candidate cilia as true Ivs-positive cilia, the width of the objects created from merging the brightest pixels in each spot had to be at least 2 pixels and the length to half-width ratio had to exceed 3. (i.e. a 3-pixel long by 2-pixel wide cilium was the minimum accepted cilium size and the length had to be at least 1.5 fold of the width). The mean GFP intensity within these Ivs-positive cilia was used to estimate the ciliary level of Smo protein. The inventors subtracted the background of the mean GFP intensity in the 3-pixel wide area around each candidate cilium to avoid some false positives. Those Ivs-positive cilia that exceed the final mean GFP intensity threshold set for each experiment were deemed Smo-positive cilia.
Hoechst staining was used to determine the total number of nuclei per well.
Measurements of the geometry of the cilia as well as the total fluorescent intensities of each cilium in the Smo- and Ivs-channels were used to determine if any of the compounds were having unusual effects on cilia size, intensity or frequency of observation or combinations of all three characteristics.

[3] = tested on: Hh pathway activation induced by loss of suFU; test: Gli-luciferase assay in suFU−/− mouse embryonic fibroblasts; type: cell-based; conditions: suFU−/− cells
Description: (§4) Hh activity assays were performed using ShhLightll cells, Smo/Lightll cells, SmoM2/Lightll cells, and suFU−/− mouse embryonic fibroblasts. In the suFU−/− cells, Hh activity was measured after co-transfection with Gli driven firefly luciferase and TK-renilla luciferase reporters^41. Wnt activity was measured in 293 cells co-transfected with Top-flash and TK-renilla luciferase reporters^42. Cells were cultured and treated in 96 well assay plates (Corning) and incubated with Duo-Glo luciferase substrates (Promega) to measure firefly and renilla luciferase activity sequentially using a Top Count NX Microplate Scintillation and Luminescence Counter (Perkin Elmer). The renilla luciferase signal was used to normalize the firefly reporter activity.
ShhLightII cells and SmoM2/LightII cells were cultured and treated in 96 well assay plates (Corning) and incubated with Duo-Glo luciferase substrates (Promega) to sequentially measure firefly and renilla luciferase activity. […] Wnt activity was measured following co-transfection of a Top-flash and renilla luciferase reporter. […] Luciferase signal was read by TopCount NX Microplate Scintillation and Luminescence Counter (Perkin Elmer). Quantitative PCR probes for Ptch1, Gli1, and β-actin were purchased from Applied Biosystems. […]

[4] = biological target: T1, Smo::EGFP; test: Cyc-induced Smo ciliary accumulation (Smo::EGFP/Ivs::tagRFPT cells); type: cell-based; conditions: 5 μM Cyc
Description: as §2, §3

[5] = tested on: Hh pathway activity; test: Gli-luciferase reporter assay, Shh-induced Hh pathway activity (ShhLightII cells); type: cell-based; conditions: Gli-luciferase induction and Smo ciliary localization; 10 μM FA
Description: as §1, §4
(§5) ShhLightII cells and SmoM2/LightII cells were cultured and treated in 96 well assay plates (Corning) and incubated with Duo-Glo luciferase substrates (Promega) to sequentially measure firefly and renilla luciferase activity. Smo, or GFP, expression plasmids were co-transfected into 3T3 cells together with a Gli-responsive firefly reporter and a TK-renilla luciferase reporter contruct to monitor effects of Smo overexpression. Co-transfection of the two reporter constructs was conducted in assays measuring Hh pathway activity in suFU−/− cells. Wnt activity was measured following co-transfection of a Top-flash and renilla luciferase reporter. In both Hh and Wnt activity assays, renilla luciferase reporter activity, or mass of protein, was used to normalize expression values. Luciferase signal was read by TopCount NX Microplate Scintillation and Luminescence Counter (Perkin Elmer). Quantitative PCR probes for Ptch1, Gli1, and β-actin were purchased from Applied Biosystems. Reactions and measurements were performed using on an Applied Biosystems 7900HT at Harvard FAS Center of System Biology. β-actin was used to normalize Ptch1 and Gil1 values.

[6] = biological target: T1, Smo::EGFP; test: FA promoted accumulation of Smo in the PC, inhibition by Smo antagonists; type: cell-based; conditions: FA-induced
Description: Cells were cultured and treated in 384-well imaging plate precoated with poly-D-Lysine (Greiner Bio-one), fixed with 4% paraformaldehyde (Electron Microscopy Sciences), and stained with Hoechst (Invitrogen). Images were collected using Opera High Content Screening System (Perkin Elmer). ActivityBase (IDBS), Pipeline Pilot (Accelrys), Excel (Microsoft), and Prism (GraphPad) were used for high content screening data management and analysis. Acapella 2.0 software (Evotec Technologies/PerkinElmer) was used to perform multi-parametric image quantification. All the comparative images were scanned with identical microscopic setting and analyzed with the same input parameters.

[7] = biological target: T2, SmoM2::GFP (Homo sapiens, UniProt Q99835, W535L); test: Ciliary localization of SmoM2::GFP (3T3/SmoM2::GFP Overexpression/Ivs::tagRFPT); type: cell-based; conditions: SmoM2::EGFP overexpressing cells
T2 construct: expressed in transfected cells
T2 sequence (Q99835 28-787 W535L): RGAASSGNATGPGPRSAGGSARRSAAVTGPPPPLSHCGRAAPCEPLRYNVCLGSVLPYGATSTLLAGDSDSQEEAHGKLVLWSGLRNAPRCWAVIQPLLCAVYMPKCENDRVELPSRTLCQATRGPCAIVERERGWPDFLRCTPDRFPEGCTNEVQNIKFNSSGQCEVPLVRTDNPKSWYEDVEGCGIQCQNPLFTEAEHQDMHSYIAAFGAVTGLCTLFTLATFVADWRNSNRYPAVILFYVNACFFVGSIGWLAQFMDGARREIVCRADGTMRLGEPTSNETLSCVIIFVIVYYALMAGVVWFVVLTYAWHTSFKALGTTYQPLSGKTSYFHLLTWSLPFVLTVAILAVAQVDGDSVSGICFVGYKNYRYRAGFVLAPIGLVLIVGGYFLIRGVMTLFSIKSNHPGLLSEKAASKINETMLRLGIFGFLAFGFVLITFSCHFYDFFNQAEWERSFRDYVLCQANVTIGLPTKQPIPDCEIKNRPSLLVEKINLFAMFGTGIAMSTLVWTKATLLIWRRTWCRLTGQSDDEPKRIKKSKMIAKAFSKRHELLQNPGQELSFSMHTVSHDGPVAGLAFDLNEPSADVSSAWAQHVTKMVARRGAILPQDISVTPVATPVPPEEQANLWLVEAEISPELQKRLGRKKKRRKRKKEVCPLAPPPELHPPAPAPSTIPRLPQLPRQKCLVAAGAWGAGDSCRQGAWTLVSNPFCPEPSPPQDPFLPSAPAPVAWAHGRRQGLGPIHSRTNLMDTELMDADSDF
Description: as §1, §2, §3

[8] = tested on: Hh pathway activity; test: Priming and withdrawal of compound followed by Shh stimulation, Gli-luciferase reporter (hypersensitivity); type: cell-based; conditions: priming 24 hours, washout, then Shh (or SAG) stimulation
Description: as §4
Following the removal of drug containing medium, and extensive washing, cells were stimulated with either Hh ligand, or the direct-binding Smo agonist SAG^17,18.
as §5

[9] = tested on: SmoM2; test: Gli-luciferase reporter induced by SmoM2::GFP overexpression (SmoM2/LightII cells); type: cell-based; conditions: SmoM2 versus wild-type Smo
Description: as §1, §4, §5

[10] = tested on: Hh pathway activity; test: Gli-luciferase reporter assay, Hh pathway activation by compound alone (NIH/3T3 cells); type: cell-based; conditions: FA at high concentrations
Description: as §5

[11] = tested on: Smo; test: Bodipy-cyclopamine competition assay in Cos 7 cells expressing Smo; type: binding; conditions: cells over-expressing Smo, 5 nM Bodipy-cyclopamine
Description: Cos 7 cells were transfected with a plasmid co-expressing Smo and a nuclear localized form of tagRFPT (pCIT-Smo). An empty parental construct (pCIT), and a construct that co-expresses SmoM2, were used as controls to assess specificity and background noise. Three days after transfection, cells were incubated with 5 nM Bodipy-cyclopamine, with or without other compounds for 1 hour at 37 °C. Cells were washed, fixed and stained with Hoechst. Images were collected by an Opera High Content Screen System. Bodipy fluorescence was quantified specifically for transfected cells (determined by red tagRFPT+ nucleus) using a program developed by the authors with Acapella 2.0 software. All of the images were scanned with identical microscopic settings and analyzed with the same input parameters.
Cos 7 cells were transfected with a plasmid that co-expresses Smo and a nuclear localized tagRFPT marker (pCIT-Smo). The empty parental construct (pCIT) and a construct that co-express SmoM2 were used as controls to assess specificity and background signal. Three days after transfection, cells were incubated with 5 nM Bodipy-cyclopamine, with or without additional compounds, for 1 hour at 37° C. Cells were then fixed and stained with Hoechst. Images were collected with the Opera High Content Screen System. Fluorescence values were assessed in transfected cells (red nuclei) with a program developed by the authors using Acapella 2.0 software. All of images were scanned with identical microscopic setting and analyzed with the same input parameters.

T1 sequence (Q99835 28-787): as the sequence (Q99835 28-787 W535L) above, with L508W counted along it

Row | effect on Hh pathway activation induced by loss of suFU [3] | effect on Cyc induced Smo cilial accumulation [4] | effect on FA promoted accumulation of Smo in the PC [6] | effect on SmoM2 ciliary localization [7] | hypersensitivity to Hh pathway stimulation after priming with and removal of compound, Gli-luciferase [8] | IC50's for SmoM2 relative to IC50's for wildtype Smo [9] | SMILES | peak plasma concentration [1] [µM] | inhibition of Shh-induced Smo::EGFP accumulation in the PC [2] | Hh pathway inhibition by the antagonist in the presence of FA [5] | effect on FA induced activation of the Hh pathway [10] | competition of Bodipy-Cyc binding to Smo [11]
1 | – | – | – | – | – | – | C[C@@H]1C[C@H]2[C@@H]3CCC4=CC(=O)C=C[C@]4(C)[C@@]3(F)[C@@H](O)C[C@]2(C)[C@@]1(O)C(=O)CO [Dexamethasone] | > 10 | – | – | – | –
2 | does not alter | effectively compete with Cyc | inhibit | did not alter SmoM2 ciliary accumulation | no enhancing activity | at least an order of magnitude higher | CS(=O)(=O)c1ccc(C(=O)Nc2ccc(Cl)c(-c3ccccn3)c2)c(Cl)c1 [GDC0449] | – | specifically inhibited Smo::EGFP accumulation in the PC | dramatically reduced | – | –
3 | – | effectively compete with Cyc | inhibit | did not alter SmoM2 ciliary accumulation | – | at least an order of magnitude higher | Cc1nn(-c2ccccc2)c(C)c1/C=N/N1CCN(Cc2ccccc2)CC1 [SANT-1] | – | specifically inhibited Smo::EGFP accumulation in the PC | dramatically reduced | blocked | effective competitor
